US20210253562A1, “ACYLSUFONAMIDE COMPOUNDS USEFUL AS EP3 RECEPTOR ANTAGONISTS” (Janssen Pharmaceutica NV, priority 2018, published 2021)

Columns and labels:
[1] = molecular target: T1, CHO cells over-expressing the EP3 receptor (Homo sapiens, UniProt P43115); experiment: CHO cell cAMP assay; EP3 cAMP antagonist dose response (sulprostone reference), HTRF; type: cell-based; details: sulprostone 700 nM (EC80) and FSK 2 μM (EC70); read-out: CHO_cAMP IC50
T1 construct: expressed in transfected cells; host or cells: CHO cells
T1 sequence (P43115 1-390): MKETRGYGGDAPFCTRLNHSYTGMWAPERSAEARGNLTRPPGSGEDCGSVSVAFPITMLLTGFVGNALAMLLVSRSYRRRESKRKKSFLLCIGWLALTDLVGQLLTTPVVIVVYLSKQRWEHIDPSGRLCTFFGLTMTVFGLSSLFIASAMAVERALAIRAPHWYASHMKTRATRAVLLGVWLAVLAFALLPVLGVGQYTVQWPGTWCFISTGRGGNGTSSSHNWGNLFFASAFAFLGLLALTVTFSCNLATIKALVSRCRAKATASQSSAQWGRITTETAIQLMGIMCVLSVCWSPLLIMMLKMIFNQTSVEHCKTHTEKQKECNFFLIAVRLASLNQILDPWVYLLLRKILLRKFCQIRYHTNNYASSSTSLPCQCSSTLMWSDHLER
Experimental: Biological Example 2: CHO Cell cAMP Assay
This assay monitored the cAMP generation in CHO cells over-expressing the EP3 receptor in the presence or absence of antagonist stimulated with Forskolin (FSK, CAS No. 66428-89-5) and a known EP3 Agonist (sulprostone, CAS No. 60325-46-4). For detection, a homogeneous competitive immunoassay (Time Resolved Fluorescence Energy Transfer (hTR-FRET)) was used.
Cells (6K cells per well) were plated in Poly-D-Lysine coated plates the day before the assay was to be run and were incubated at 37° C. One hour before the assay the media was removed and replaced with assay buffer (500 mL HBSS (+Ca)+2.5 mL 1M HEPES+6.66 mL 7.5% BSA) (starved at 37° C.). At the start of the assay the buffer was removed from the cells and replaced with buffer containing test compound(s). Sulprostone at an EC80 dose (700 nM) and FSK at an EC70 dose (2 μM) were added to initiate the reaction (37° C. for 30 minutes).
FSK increases cAMP production and sulprostone decreases cAMP production produced by FSK. In this assay, EP3 antagonists will increase the cAMP to the level of cAMP generated by FSK alone.
The reaction was terminated with the addition of cAMP detection reagents (labeled cAMP and labeled cAMP antibody in lysis buffer (HTRF reagent, which utilizes a cryptate-labeled anti-cAMP and d2-labeled cAMP-d2 is an HTRF acceptor fluorophore)). Approximately one hour later the plates were read on an Envision (Perkin Elmer) in HTRF mode. Well results were calculated based on a ratio of counts at 665 nm and 615 nm (data output was a calculation of the ratio: (read @665 nm/read @ 615 nm)*1000. For test compounds dosed serially, well results were converted to nM cAMP using a cAMP standard run on each plate. nM cAMP from a set of wells dosed with test compound(s) were plotted. nM cAMP was calculated for each well from a standard curve located on each plate (P1-12 and P13-24) by first calculating the slope and deriving the intercept(b):
[formula] NScAMP_s tan dard_cruve=m(nM cAMP_s tan dard_curve)+b
NSP, NSN, NSsample were converted to nM cAMP using the following equation: […]
IC50 values were determined from a […] (Hill equation) of a single 11-point compound dosing. A best-fit curve was determined by the minimum sum of squares method plotting cAMP produced vs compound concentration.

[2] = molecular target: T2, EP3 membrane (EP3 receptor) (Homo sapiens, UniProt P43115); experiment: [3H]-PGE2 binding; EP3 competition binding (SPA)
T2 construct: purchased Millipore HTS092M
T2 sequence (P43115 1-390): T1 sequence (P43115 1-390)
Procedure, shortened: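 SPA competition at room temperature, 2 h: EP3 membranes 2 μg/well, 2 nM [3H]-PGE2, 0.1% DMSO, in Tris/MgCl2/EDTA buffer pH 7.4. Compounds in 1:3 serial dilution; scintillation read; Ki by one-site nonlinear fit.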

SMILES	IC50 [1] [nM]	Ki [2] [nM]
O=C(NC/C(F)=C1/CCCn2nnc(Cc3ccccc3)c21)NS(=O)(=O)c1cc(Cl)c(Cl)s1 [Compound #135, (E)-N-((2-(3-benzyl-6,7-dihydro-[1,2,3]triazolo[1,5-a]pyridin-4(5H)-ylidene)-2-fluoroethyl)carbamoyl)-4,5-dichlorothiophene-2-sulfonamide]	4600	472
O=C(NS(=O)(=O)c1ccc(Cl)cc1)OC/C=C1\c2c(cnn2Cc2ccc(Cl)cc2Cl)CCC1F (stereo not shown) [Compound #51, (E)-2-(1-(2,4-dichlorobenzyl)-6-fluoro-1,4,5,6-tetrahydro-7H-indazol-7-ylidene)ethyl ((4-chlorophenyl)sulfonyl)carbamate]	15700	> 10000
O=C(NC/C(F)=C1\CCCc2cnn(-c3ccc(C(F)(F)F)cc3)c21)NS(=O)(=O)c1ccc2c(c1)OCCO2 [Compound #116, (Z)—N-((2-fluoro-2-(1-(4-(trifluoromethyl)phenyl)-1,4,5,6-tetrahydro-7H-indazol-7-ylidene)ethyl)carbamoyl)-2,3-dihydrobenzo[b][1,4]dioxine-6-sulfonamide]	> 20000	4100
O=C(NC/C(F)=C1/CCCc2cnn(-c3ccc4ccccc4c3)c21)NS(=O)(=O)c1ccc2c(c1)OCCO2 [Compound #110, (E)-N-((2-fluoro-2-(1-(naphthalen-2-yl)-1,4,5,6-tetrahydro-7H-indazol-7-ylidene)ethyl)carbamoyl)-2,3-dihydrobenzo[b][1,4]dioxine-6-sulfonamide]	> 20000	> 10000
COc1ccc(S(=O)(=O)NC(=O)NC/C=C2\CCCc3cnn(Cc4ccc(Cl)cc4Cl)c32)cc1 [Compound #13, (E)-N-((2-(1-(2,4-dichlorobenzyl)-1,4,5,6-tetrahydro-7H-indazol-7-ylidene)ethyl)carbamoyl)-4-methoxybenzenesulfonamide]	29	10
O=C(NC/C(F)=C1/CCCc2onc(-c3ccc(Cl)cc3)c21)NS(=O)(=O)c1ccc(Cl)cc1 [Compound #96, (E)-4-chloro-N-((2-(3-(4-chlorophenyl)-6,7-dihydrobenzo[d]isoxazol-4(5H)-ylidene)-2-fluoroethyl)carbamoyl)benzenesulfonamide]	> 20000	> 10000
CC(C)S(=O)(=O)NC(=O)C/C=C1\CCCc2cnn(Cc3ccc(Cl)cc3Cl)c21 [Compound #14, (E)-3-(1-(2,4-dichlorobenzyl)-1,4,5,6-tetrahydro-7H-indazol-7-ylidene)-N-(isopropylsulfonyl)propenamide]	3700	2000
COc1ccc(Cl)c(S(=O)(=O)NC(=O)NC/C=C2\COCc3cnn(Cc4ccc(Cl)cc4Cl)c32)c1 [Compound #65, (Z)-2-chloro-N-((2-(1-(2,4-dichlorobenzyl)-1,4-dihydropyrano[4,3-c]pyrazol-7(6H)-ylidene)ethyl)carbamoyl)-5-methoxybenzenesulfonamide]	44	27
COc1ccccc1S(=O)(=O)NC(=O)NC/C=C1\COCc2cnn(Cc3ccc(Cl)cc3Cl)c21 [Compound #58, (Z)—N-((2-(1-(2,4-dichlorobenzyl)-1,4-dihydropyrano[4,3-c]pyrazol-7(6H)-ylidene)ethyl)carbamoyl)-2-methoxybenzenesulfonamide]	1300	110
O=C(NC/C(F)=C1\CCCc2cnn(-c3ccc(C(F)(F)F)cc3)c21)NS(=O)(=O)c1ccc(Cl)s1 [Compound #124, (Z)-5-chloro-N-((2-fluoro-2-(1-(4-(trifluoromethyl)phenyl)-1,4,5,6-tetrahydro-7H-indazol-7-ylidene)ethyl)carbamoyl)thiophene-2-sulfonamide]	798	100
O=C(NC/C=C1\CCCc2cnn(C3CCN(c4ccc(F)cc4)CC3)c21)NS(=O)(=O)c1ccc(Cl)cc1 [Compound #122, (E)-4-chloro-N-((2-(1-(1-(4-fluorophenyl)piperidin-4-yl)-1,4,5,6-tetrahydro-7H-indazol-7-ylidene)ethyl)carbamoyl)benzenesulfonamide]	45	6
CC(C)S(=O)(=O)NC(=O)CC/C=C1\CCCc2cnn(Cc3ccc(Cl)cc3Cl)c21 [Compound #69, (E)-4-(1-(2,4-dichlorobenzyl)-1,4,5,6-tetrahydro-7H-indazol-7-ylidene)-N-(isopropylsulfonyl)butanamide]	118	179

Stronger by IC50 [1], values ahead:

IC50 [1] [nM]	Ki [2] [nM]	SMILES
9	6	CN(C/C=C1\CCCc2cnn(Cc3ccc(Cl)cc3Cl)c21)C(=O)NS(=O)(=O)c1ccc(Cl)cc1 [Compound #33, (E)-4-chloro-N-((2-(1-(2,4-dichlorobenzyl)-1,4,5,6-tetrahydro-7H-indazol-7-ylidene)ethyl)(methyl)carbamoyl)benzenesulfonamide]
4	2	O=C(NC/C=C1\CCCn2nnc(-c3ccc(C(F)(F)F)cc3)c21)NS(=O)(=O)c1cc(Cl)c(Cl)s1 [Compound #155, (E)-4,5-dichloro-N-((2-(3-(4-(trifluoromethyl)phenyl)-6,7-dihydro-[1,2,3]triazolo[1,5-a]pyridin-4(5H)-ylidene)ethyl)carbamoyl)thiophene-2-sulfonamide]
1	1	O=C(NC/C(F)=C1\CCCc2cnn(Cc3ccc(Cl)cc3Cl)c21)NS(=O)(=O)c1cc(Cl)c(Cl)s1 [Compound #40, (Z)-4,5-dichloro-N-((2-(1-(2,4-dichlorobenzyl)-1,4,5,6-tetrahydro-7H-indazol-7-ylidene)-2-fluoroethyl)carbamoyl)thiophene-2-sulfonamide]
6	2	Cc1cc(S(=O)(=O)NC(=O)NC/C(F)=C2\CCCc3cnn(Cc4ccc(Cl)cc4Cl)c32)sc1Cl [Compound #149, (Z)-5-chloro-N-((2-(1-(2,4-dichlorobenzyl)-1,4,5,6-tetrahydro-7H-indazol-7-ylidene)-2-fluoroethyl)carbamoyl)-4-methylthiophene-2-sulfonamide]
5	1	O=C(NS(=O)(=O)c1cc(Cl)c(Cl)s1)OC/C=C1\CCCc2cnn(Cc3ccc(Cl)cc3Cl)c21 [Compound #5, (E)-2-(1-(2,4-dichlorobenzyl)-1,4,5,6-tetrahydro-7H-indazol-7-ylidene)ethyl ((4,5-dichlorothiophen-2-yl)sulfonyl)carbamate]
8	1	O=C(NC/C(F)=C1\CCCc2onc(Cc3ccc(Cl)cc3Cl)c21)NS(=O)(=O)c1cc(Cl)c(Cl)s1 [Compound #127, (Z)-4,5-dichloro-N-((2-(3-(2,4-dichlorobenzyl)-6,7-dihydrobenzo[d]isoxazol-4(5H)-ylidene)-2-fluoroethyl)carbamoyl)thiophene-2-sulfonamide]
27	9	O=C(NC/C=C1\CCCc2cnn(Cc3ccc(Cl)cc3Cl)c21)NS(=O)(=O)c1ccc2c(c1)OCCO2 [Compound #16, (E)-N-((2-(1-(2,4-dichlorobenzyl)-1,4,5,6-tetrahydro-7H-indazol-7-ylidene)ethyl)carbamoyl)-2,3-dihydrobenzo[b][1,4]dioxine-6-sulfonamide]
12	8	O=C(NC/C=C1\CCCc2cnn(C3CCN(c4ccccn4)CC3)c21)NS(=O)(=O)c1cc(Cl)c(Cl)s1 [Compound #140, (E)-4,5-dichloro-N-((2-(1-(1-(pyridin-2-yl)piperidin-4-yl)-1,4,5,6-tetrahydro-7H-indazol-7-ylidene)ethyl)carbamoyl)thiophene-2-sulfonamide]
